# Test results taken from patent US12263248B2, “Compounds and compositions for intracellular delivery of therapeutic agents” (ModernaTX, Inc., priority 2018, dated 2025).
# Tests used:
# [1] = Particle size and polydispersity index of nanoparticle compositions (Zetasizer Nano ZS); type: physicochemical; details: Table 1A; for Size (nm): lipid:DSPC:cholesterol:PEG-DMG 50:10:38.5:1.5 mol %
# Description: A Zetasizer Nano ZS (Malvern Instruments Ltd, Malvern, Worcestershire, UK) can be used to determine the particle size, the polydispersity index (PDI) and the zeta potential of the nanoparticle compositions in 1×PBS in determining particle size and 15 mM PBS in determining zeta potential.
# [2] = Encapsulation efficiency of RNA (QUANT-IT RIBOGREEN RNA assay); type: physicochemical; details: Table 1A
# Description: For nanoparticle compositions including an RNA, a QUANT-IT™ RIBOGREEN® RNA assay (Invitrogen Corporation Carlsbad, CA) can be used to evaluate the encapsulation of an RNA by the nanoparticle composition. The samples are diluted to a concentration of approximately […] in a TE buffer solution (10 mM Tris-HCl, 1 mM EDTA, pH 7.5). 50 μL of the diluted samples are transferred to a polystyrene 96 well plate and either 50 μL of TE buffer or 50 μL of a 2% Triton X-100 solution is added to the wells. The plate is incubated at a temperature of 37° C. for 15 minutes. The RIBOGREEN® reagent is diluted 1:100 in TE buffer, and 100 μL of this solution is added to each well. The fluorescence intensity can be measured using a fluorescence plate reader (Wallac Victor 1420 Multilabel Counter; Perkin Elmer, Waltham, MA) at an excitation wavelength of, for example, about 480 nm and an emission wavelength of, for example, about 520 nm. The fluorescence values of the reagent blank are subtracted from that of each of the samples and the percentage of free RNA is determined by dividing the fluorescence intensity of the intact sample (without addition of Triton X-100) by the fluorescence value of the disrupted sample (caused by the addition of Triton X-100).
# [3] = Apparent (surface) pKa of the LNP formulation (TNS assay); type: physicochemical; details: Table 1A
# Description: Using sodium hydroxide (1 M) and hydrochloric acid (1 M), 21 unique buffers were prepared from the master buffer stock at pH values between about 3 and 12. Next, a stock of 300 μM 6-(p-Toluidino)-2-naphthalenesulfonic acid sodium salt (TNS reagent) in DMSO was prepared and the LNP was mixed with the desired formulation buffer at a concentration of 0.04 mg/mL mRNA. This assay has been validated in 1× PBS and 20 mM Tris w/8% sucrose buffer. The buffer solutions at various pH values were added to a 96-well plate in triplicate for each pH. To each well was added 3.26 μL of LNP sample at a mRNA concentration of 0.04 mg/mL and 2.0 μL of 300 μM TNS reagent solution. After careful mixing, the resulting fluorescence values were read for each plate to create a sigmoidal plot of the fluorescence values vs. buffer pH. The […] inflection point of this curve is the apparent pKa of the LNP formulation.
# luciferase (Luc) mRNA [4] = assay: Luc expression, whole body bioluminescence after intravenous administration to mice; type: in vivo; details: for Fold increase in total body Luc Flux relative to MC3 at 6 h: Table 3A; for Total Flux 3 hours / Total Flux 6 hours / Total Flux 24 hours: mice, i.v., 0.5 mg/kg, Luc mRNA
# Description: In order to monitor how effectively various nanoparticle compositions deliver therapeutic and/or prophylactics to targeted cells, different nanoparticle compositions including a particular therapeutic and/or prophylactic (for example, a modified or naturally occurring RNA such as an mRNA) are prepared and administered to rodent populations. Mice are intravenously, intramuscularly, intraarterially, or intratumorally administered a single dose including a nanoparticle composition with a formulation such as those provided in Example 3. In some instances, mice may be made to inhale doses. Dose sizes may range from 0.001 mg/kg to 10 mg/kg, where 10 mg/kg describes a dose including 10 mg of a therapeutic and/or prophylactic in a nanoparticle composition for each 1 kg of body mass of the mouse. A control composition including PBS may also be employed.
# Upon administration of nanoparticle compositions to mice, dose delivery profiles, dose responses, and toxicity of particular formulations and doses thereof can be measured by enzyme-linked immunosorbent assays (ELISA), bioluminescent imaging, or other methods. For nanoparticle compositions including mRNA, time courses of protein expression can also be evaluated. Samples collected from the rodents for evaluation may include blood, sera, and tissue (for example, muscle tissue from the site of an intramuscular injection and internal tissue); sample collection may involve sacrifice of the animals.
# The efficacy of the nanoparticle compositions presented in Table 1A was evaluated with a bioluminescence study. Formulations were administered intravenously to mice (n=6) at a dosage of 0.5 mg/kg (mpk) and bioluminescence measured at 3, 6, and 24 hour time points. The standard MC3 formulation and, in some instances, a control (e.g., a PBS control) were evaluated for comparison. […] In general, flux decreased as time progressed to less than 10% of the initial flux.
# (§1) Whole body and ex vivo organ bioluminescent imaging of mice: CD-1 mice were injected 15 minutes prior to the imaging timepoint intraperitoneally (IP) with 200 μL Xenolight D-luciferin K+ salt, diluted in PBS just prior to use to a concentration of 15 mg/mL. Ex vivo imaging of organs was completed within 25 minutes of luciferin administration. All images were quantified by region of interest for total flux.
# luciferase (Luc) mRNA [5] = assay: Luc expression in liver, lung, spleen and femur 6 hours after intravenous administration; type: in vivo; details: mice, 0.5 mpk; for Total Flux Liver / Total Flux Lung / Total Flux Spleen: intravenous
# Description: The efficacy of the nanoparticle compositions presented in Table 1A was further evaluated by measuring the expression of modified luciferase in the liver, lung, spleen, and femur upon administration of a given composition. Formulations were administered intravenously to mice (n=3) at a dosage of 0.5 mpk and bioluminescence measured after 6 hours. The standard MC3 formulation and a PBS control were also tested. […] Flux in the liver was lowest for compositions including Compounds 58, 59, 137, and 141. Flux in the spleen was highest for compositions including Compounds 4, 7, 33, 34, 48, 53, 108, 129, 130, and 148, and lowest for compositions including Compounds 9, 59, 124, and 141.
# as §1
Compound,PDI [1],Size (nm) [1] [nm],EE (%) [2] [%],pKa [3],Fold increase in total body Luc Flux relative to MC3 at 6 h (luciferase (Luc) mRNA [4]; i.v. administration),Total Flux 3 hours (luciferase (Luc) mRNA [4]),Total Flux 6 hours (luciferase (Luc) mRNA [4]),Total Flux 24 hours (luciferase (Luc) mRNA [4]),Total Flux Liver (luciferase (Luc) mRNA [5]),Total Flux Lung (luciferase (Luc) mRNA [5]),Total Flux Spleen (luciferase (Luc) mRNA [5]),"Flux in the liver (luciferase (Luc) mRNA [5]; i.v., in words)","Flux in the spleen (luciferase (Luc) mRNA [5]; i.v., in words)","flux measured at 6 h relative to the MC3 formulation (luciferase (Luc) mRNA [4]; i.v. administration, in words)"
"CCCCCCCC/C=C\CCCCCCCCN(CCO)CCCCCCCC(=O)OC(CCCCCCCC)CCCCCCCC [Compound 31, heptadecan-9-yl (Z)-8-((2-hydroxyethyl)(octadec-9-en-1-yl)amino) octanoate]",0.15,73.9,95.11,6.64,1.21,4.19E+10,5.31E+10,1.68E+09,5.17E+09,7.55E+06,9.42E+07,,,
"CCCCCCCCCOC(=O)CCCCCCCN(CCO)CCCCCCCC(=O)OC(CCCCC)CCCCCCCC (stereo not shown) [Compound 33, nonyl 8-((2-hydroxyethyl)(8-oxo-8-(tetradecan-6-yloxy)octyl)amino) octanoate]",0.13,107.3,95.66,6.80,2.74,6.53E+10,1.20E+11,3.71E+09,1.78E+10,2.92E+07,3.77E+08,highest,highest,
"CCCCCCCCCOC(=O)CCCCCCCN(CCO)CCCCCCCC(=O)OC(CCC)CCCCCCCC (stereo not shown) [Compound 34, dodecan-4-yl 8-((2-hydroxyethyl)(8-(nonyloxy)-8-oxooctyl)amino) octanoate]",0.14,133.8,92.52,6.64,0.34,1.06E+10,1.48E+10,6.69E+08,2.08E+09,9.49E+06,2.40E+08,,highest,
"CCCCCCCCCOC(=O)CCCCCCCN(CCO)CCCCCCCC(=O)OC(C)CCCCCCCC (stereo not shown) [Compound 36, decan-2-yl 8-((2-hydroxyethyl)(8-(nonyloxy)-8-oxooctyl)amino) octanoate]",0.17,163.5,81.45,7.38,0.004,6.97E+07,1.72E+08,4.44E+05,2.65E+07,5.82E+05,6.14E+07,,,
"CCCCCCCCC(CCCCCCCC)OC(=O)CCCCCCCN(CCO)CCCC(=O)OCCCCCCC [Compound 54, heptadecan-9-yl 8-((4-(heptyloxy)-4-oxobutyl)(2-hydroxyethyl)amino) octanoate]",0.19,112.9,96.71,6.51,3.80,5.36E+10,4.18E+10,9.07E+08,5.57E+09,1.12E+07,1.64E+08,,,higher flux than MC3 formulations
"CCCCCCCCCOC(=O)CCCCCCCN(CCCCCCCC(=O)OC(CCCCCCCC)CCCCCCCC)Cc1ccccc1 [Compound 94, Heptadecan-9-yl 8-(benzyl(8-(nonyloxy)-8-oxooctyl)amino)octanoate]",0.24,62.4,0,4.43,,,,,,,,,,
CCCCCCCCCOC(=O)CCCCCCCN(CCCCCCCC(=O)OC(CCCCCCCC)CCCCCCCC)CCCC(F)(F)F [Compound 107],0.74,55,0,4.802,,,,,,,,,,
"CCCCCCCCCOC(=O)CCCCCCCN(CCCCCCCC(=O)OC(CCCCCCCC)CCCCCCCC)CCCn1cnc2c(N)ncnc21 [Compound 116, Heptadecan-9-yl 8-((3-(6-amino-9H-purin-9-yl)propyl)(8-(nonyloxy)-8-oxooctyl)amino)octanoate]",0.14,63.3,99.4,5.66,,3.13E+07,3.86E+07,,,,,,,
"CCCCCCCCCOC(=O)CCCCCCCN(CCO)CCCCCCCC(=O)Oc1ccc(CCCCC)cc1 [Compound 119, Nonyl 8-((2-hydroxyethyl)(8-oxo-8-(4-pentylphenoxy)octyl)amino)octanoate]",0.24,60.8,98.1,5.29,,1.02E+07,3.74E+07,,,,,,,
"CCCCCCCCCOC(=O)CCCCCCCN(CCCCCCCC(=O)OC(CCCCCCCC)CCCCCCCC)CCCn1ccnn1 [Compound 179, Heptadecan-9-yl 8-((3-(1H-1,2,3-triazol-1-yl)propyl)(8-(nonyloxy)-8-oxooctyl)amino)octanoate]",0.11,71.6,94.7,6.16,,,,,,,,,,
"CCCCCCCCCOC(=O)CCCCCCCN(CCCCCCCC(=O)OC(CCCCCCCC)CCCCCCCC)CCCNC(=O)OC [Compound 181, Heptadecan-9-yl 8-((3-((methoxycarbonyl)amino)propyl)(8-(nonyloxy)-8-oxooctyl)amino)octanoate]",0.12,78.7,88.9,6.17,,,,,,,,,,
"CCCCCCCCCOC(=O)CCCCCCCN(CCCCCCCC(=O)OC(CCCCCCCC)CCCCCCCC)CCCNC(=O)CO [Compound 198, Heptadecan-9-yl 8-((3-(2-hydroxyacetamido)propyl)(8-(nonyloxy)-8-oxooctyl)amino)octanoate]",0.24,84.2,99.5,7.62,,,,,,,,,,
